Measured values: the METLIN SMRT retention time set (Domingo-Almenara et al. 2019)

Assay: gradient 5% acetonitrile 3 min, to 50% in 2 min, to 85% in 15 min, held 3 min, 100 µL/min
Conditions: column: Zorbax Extend-C18 2.1 x 50 mm; eluents: water / acetonitrile, 0.1% formic acid
Method in brief: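 Retention times come from adduct peaks that were picked computationally and then checked by hand. The standards, pure and pooled in mixtures of ~100 molecules, were run on a Zorbax Extend-C18 column (2.1 × 50 mm, 1.8 μm) at 100 μL/min with water and acetonitrile, each with 0.1% formic acid. Detection was by quadrupole time-of-flight mass spectrometry in positive and negative ionization mode, with a dead volume of 40 μL and a dwell volume of 900 μL.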

| Structure (SMILES) | RP-LC retention time [s] |
| --- | --- |
| O=C(c1cn(-c2ccc(S(=O)(=O)N3CCOCC3)cc2)cn1)N1CCN(c2ccccn2)CC1 | 598 |
| CCN(CC)CCNc1ncnc2onc(-c3cccc(Cl)c3)c12 | 660 |
| Cc1ccc(NC(=O)N2CC(c3nc(C(C)C)nn3C)C2)cc1F | 706 |
| CCNC(=O)C1CCN(c2cc(SCC(=O)Nc3ccccc3OCC)ncn2)CC1 | 760 |
| COC(=O)c1ncn2c1C(=O)N(Cc1ccc(C)cc1)C(C)(C(=O)NCc1ccccc1)C2 (configuration not stated) | 747 |
| Cc1cc(N2CCCC2)n2nc(CN3CCCC(C)C3)nc2n1 (configuration not stated) | 571 |
| COc1ccc(CCNC(=O)CSc2cc(N3CCC(C(=O)NC4CC4)CC3)ncn2)cc1OC | 624 |
| CCn1cc(-c2nc(C(=O)Nc3cc(OC)ccc3OC)cs2)c2cccnc21 | 1170 |
| COC(=O)c1ccc(NS(=O)(=O)c2cccc(S(C)(=O)=O)c2)cc1 | 706 |
| O=C(CCc1ccccc1)Nc1cnn(-c2ncncc2N2CCOCC2)c1 | 649 |
| O=C(NCc1nc(-c2ccc3c(c2)Sc2ccccc2C(=O)N3C2CC2)no1)c1ccco1 | 861 |
| Cn1c(=O)c(=O)n(C)c2cc(Oc3ccccc3)c(NC(=O)C3CCCCC3)cc21 | 870 |
| CCCN(C)C(=O)C1CCN(c2cn[nH]c(=O)c2)CC1 | 597 |
| CCOc1cc(=O)c(C(=O)N2CCC(C(N)=O)CC2)nn1-c1ccc(F)c(F)c1 | 625 |
| Cc1ccc(C)c(NC(=O)Cn2nc3c4sc(N(C)C)nc4ncn3c2=O)c1 | 694 |
| COC[C@@H]1CN(Cc2c(OC)cccc2OC)C[C@H]1c1ccncc1 | 656 |

Next, values leading:

| RP-LC retention time [s] | Structure (SMILES) |
| --- | --- |
| 908 | CC(NC(=O)c1ccc(-c2ccsc2)nc1)c1ccc(F)cc1 (configuration not stated) |
| 745 | COCCN1C(=O)c2ccccc2C(C(=O)Nc2cc(C)ccn2)C12CCCCC2 (configuration not stated) |
| 546 | Cn1c(=O)c2ccn(CC(=O)N3CCN(c4ccccn4)CC3)c2n(C)c1=O |
| 772 | COC(=O)c1ccccc1S(=O)(=O)Nc1cccn2c(C3CCC3)nnc12 |
| 1060 | CCc1noc(C2(NC(=O)c3nccc4ccccc34)CCCCC2)n1 |
| 695 | COc1ccc(C(C)NC(=O)C2CCN(c3cnc4nccnc4c3)CC2)cc1 (configuration not stated) |
| 557 | COc1ccc(C(=O)N2CCn3c(C)nnc3C2)c(OC)c1 |
| 609 | O=C(c1nc(-c2ccnc(N3CCCCC3)c2)no1)N1CCN(C2CCCCC2)CC1 |
| 605 | Cc1nnc2n1CCN(C(=O)c1nn(C)c3ccccc13)C2 |
| 868 | CCc1ccc(CN2C(=O)CN(S(C)(=O)=O)CC2(C)C(=O)NCc2ccccc2)cc1 (configuration not stated) |
| 626 | COc1ccc(NC(=O)COc2ccc(-c3nnc4n3CCCC4)cc2)cc1OC |
| 794 | Cc1ccc(-c2nc(-c3ccc(-n4ccnc4)nc3)no2)cc1 |
| 660 | COc1cccc(COc2coc(C(=O)Nc3nnc(C)s3)cc2=O)c1 |
| 670 | CCCNC(=O)C1CCCN(c2ccc(SCC(=O)Nc3cccc(F)c3)nn2)C1 (configuration not stated) |
| 739 | O=C(NCc1ccccc1Br)C1CCN(c2cnc3nccnc3c2)CC1 |
| 713 | COc1ccc(NC(=O)C2CC(=O)N(c3n[nH]c4cccc(F)c34)C2)c(OC)c1 (configuration not stated) |
| 883 | COc1ccccc1NC(=O)N1C[C@H](c2nc(-c3ccccc3)no2)[C@@H](C)C1 |
| 906 | COc1ccccc1-c1noc(C2CCCN2C(=O)Nc2cc(C)ccc2C)n1 (configuration not stated) |
| 561 | COCc1nnc2n1CCC(NC(=O)c1ccoc1)CC2 (configuration not stated) |
| 650 | O=C(NCCN1CCOCC1)c1csc(N2CCN(c3ccccc3)CC2)n1 |
| 922 | Cc1ccc(CNC(=O)CN2C(=O)C3CCCCN3c3ccc(S(=O)(=O)N(C)C)cc32)cc1 (configuration not stated) |
